Where two headings read alike, the source gives them in different places.
Columns and labels:
[1] = target: HDAC1 (Homo sapiens, UniProt Q13547); assay: HDAC biochemical activity measurement (fluorescent substrate deacetylation);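 further: fluorogenic acetyl-lysine substrate (20 µM) deacetylated by HDAC1, then developer releases fluorophore read at 360 nm excitation and 460 nm emission, inhibitor incubated 30 min at 37 °C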
[2] = target: HDAC2 (Homo sapiens, UniProt Q92769); assay: as above; settings: 37° C. 30 minutes;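 further: HDAC2 enzyme with an acetyl-lysine fluorescent substrate, then developer added, fluorescence read at excitation 360 nm and emission 460 nm, inhibition measured across several compound concentrations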
[3] = tested on: A549 (human lung cancer cells); assay: MTT cancer cell growth inhibition; assay type: cell-based; settings: Homo sapiens, A549, 72 h, MTT
Method in brief: (§1)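 72 h exposure, final drug 10^−5–10^−10 M, triplicate wells; 1500 cells/well plated the day before; medium DMEM or 1640 + 10% FBS; 37° C./5% CO2. MTT (5 mg/ml stock) 4 h, DMSO solubilisation, A570 → % viability → GI50.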

[4] = tested on: BGC-823 (human gastric cancer cells); assay: MTT cancer cell growth inhibition; assay type: cell-based; settings: Homo sapiens, BGC-823, 72 h, MTT
Method in brief: as §1

[5] = tested on: Bel-7402 (human hepatoma cells); assay: MTT cancer cell growth inhibition; assay type: cell-based; settings: Homo sapiens, Bel-7402, 72 h, MTT, 72 hours incubation, Bel-7402 cells; read-out: GI50 Bel-7402
Method in brief: as §1

[6] = tested on: DU145 (human prostate cancer cells); assay: MTT cancer cell growth inhibition; assay type: cell-based; settings: Homo sapiens, DU-145, 72 h, MTT
Method in brief: as §1

[7] = tested on: H1975 (non-small cell lung adenocarcinoma); assay: MTT cancer cell growth inhibition; assay type: cell-based; settings: Homo sapiens, NCI-H1975, 72 h, MTT, 72 hours incubation, H1975 cells; read-out: GI50 H1975
Method in brief: as §1

[8] = tested on: HCC827 (human non-small cell lung cancer cells); assay: MTT cancer cell growth inhibition; assay type: cell-based; settings: Homo sapiens, HCC827, 72 h, MTT, 72 hours incubation, HCC827 cells; read-out: GI50 HCC827
Method in brief: as §1

[9] = tested on: HT1080 (human fibrosarcoma cells); assay: MTT cancer cell growth inhibition; assay type: cell-based; settings: Homo sapiens, HT-1080, 72 h, MTT
Method in brief: as §1

[10] = tested on: Hela (human cervical cancer cells); assay: MTT cancer cell growth inhibition; assay type: cell-based; settings: Homo sapiens, HeLa, 72 h, MTT
Method in brief: as §1

[11] = tested on: Huh-7 (human hepatoma cells); assay: MTT cancer cell growth inhibition; assay type: cell-based; settings: Homo sapiens, Huh-7, 72 h, MTT, 72 hours incubation, Huh-7 cells; read-out: GI50 Huh-7
Method in brief: as §1

[12] = tested on: K562 (human leukemia cells); assay: MTT cancer cell growth inhibition; assay type: cell-based; settings: Homo sapiens, K562, 72 h, MTT, 72 hours incubation, K562 cells; read-out: GI50 K562
Method in brief: as §1

[13] = tested on: KBM-5 (human chronic myelogenous leukemia); assay: MTT cancer cell growth inhibition; assay type: cell-based; settings: Homo sapiens, KBM5, 72 h, MTT, 72 hours incubation, KBM-5 cells; read-out: GI50 KBM-5
Method in brief: as §1

[14] = tested on: KBM5-T315I (human chronic myelogenous leukemia); assay: MTT cancer cell growth inhibition; assay type: cell-based; settings: Homo sapiens, 72 h, MTT, 72 hours incubation, KBM5-T315I cells; read-out: GI50 KBM5-T315I
Method in brief: as §1

[15] = tested on: MCF-7 (human breast cancer cells); assay: MTT cancer cell growth inhibition; assay type: cell-based; settings: Homo sapiens, MCF7, 72 h
Method in brief: as §1

[16] = tested on: MDA-MB-231 (breast cancer cells); assay: MTT cancer cell growth inhibition; assay type: cell-based; settings: Homo sapiens, MDA-MB-231, 72 h, read-out: GI50 MDA-MB-231, MTT, 72 hours incubation, MDA-MB-231 cells
Method in brief: as §1

[17] = tested on: MOLT-4 (human acute lymphoblastic leukemia cells); assay: MTT cancer cell growth inhibition; assay type: cell-based; settings: Homo sapiens, MOLT-4, 72 h, MTT
Method in brief: as §1

[18] = tested on: N-87 (human gastric cancer cells); assay: MTT cancer cell growth inhibition; assay type: cell-based; settings: Homo sapiens, 72 h, MTT, 72 hours incubation, N-87 cells; read-out: GI50 N-87
Method in brief: as §1

[19] = tested on: PANC-1 (Pac-1, human pancreatic cancer cells); assay: MTT cancer cell growth inhibition; assay type: cell-based; settings: Homo sapiens, PANC-1, 72 h, MTT
Method in brief: as §1

[20] = tested on: SGC-7901 (human gastric cancer cells); assay: MTT cancer cell growth inhibition; assay type: cell-based; settings: Homo sapiens, SGC-7901, 72 h, MTT, 72 hours incubation, SGC-7901 cells; read-out: GI50 SGC-7901
Method in brief: as §1

[21] = tested on: U937 (human leukemia cells); assay: MTT cancer cell growth inhibition; assay type: cell-based; settings: Homo sapiens, U-937, 72 h, MTT
Method in brief: as §1

[22] = tested on: lncap (prostate cancer cells); assay: MTT cancer cell growth inhibition; assay type: cell-based; settings: Homo sapiens, LNCaP, 72 h, MTT
Method in brief: as §1

[23] = target: HDAC3 (Homo sapiens, UniProt O15379); assay: HDAC biochemical activity measurement (fluorescent substrate deacetylation);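 further: fluorogenic acetyl-lysine substrate (20 µM) deacetylated by HDAC3, then developer added for 15 min at room temperature, release of fluorophore read at excitation 360 nm, emission 460 nm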
[24] = HDAC1, 37° C. 30 minutes, read-out: IC50 HDAC1
[25] = A549 cells, 72 hours incubation, read-out: GI50 A54
[26] = BGC-823 cells, 72 hours incubation, read-out: GI50 BG
[27] = DU145 cells, 72 hours incubation, read-out: GI50 Du1
[28] = HT1080 cells, 72 hours incubation, read-out: GI50 HT1
[29] = Hela cells, 72 hours incubation, read-out: GI50 Hela
[30] = MCF-7 cells, 72 hours incubation, read-out: GI50 MCF
[31] = MOLT-4 cells, 72 hours incubation, read-out: GI50 Mol
[32] = PANC-1 cells, 72 hours incubation, read-out: GI50 PAN
[33] = U937 cells, 72 hours incubation, read-out: GI50 U93
[34] = lncap cells, 72 hours incubation, read-out: GI50 lnca
[35] = Table 2, read-out: IC50 HDAC1, a (compounds of the present invention)
[36] = 72 hours, present invention, read-out: GI50 A549, a
[37] = 72 hours, present invention, read-out: GI50 BGC823, a
[38] = 72 hours, present invention, read-out: GI50 Du145, a
[39] = 72 hours, present invention, read-out: GI50 HT1080, a
[40] = 72 hours, present invention, read-out: GI50 Hela, a
[41] = 72 hours, present invention, read-out: GI50 MCF7, a
[42] = 72 hours, present invention, read-out: GI50 Molt-4, a
[43] = 72 hours, present invention, read-out: GI50 PANC-1, a
[44] = 72 hours, present invention, read-out: GI50 U937, a
[45] = 72 hours, present invention, read-out: GI50 lncap, a

Chain of HDAC3 (O15379 whole entry, species assumed): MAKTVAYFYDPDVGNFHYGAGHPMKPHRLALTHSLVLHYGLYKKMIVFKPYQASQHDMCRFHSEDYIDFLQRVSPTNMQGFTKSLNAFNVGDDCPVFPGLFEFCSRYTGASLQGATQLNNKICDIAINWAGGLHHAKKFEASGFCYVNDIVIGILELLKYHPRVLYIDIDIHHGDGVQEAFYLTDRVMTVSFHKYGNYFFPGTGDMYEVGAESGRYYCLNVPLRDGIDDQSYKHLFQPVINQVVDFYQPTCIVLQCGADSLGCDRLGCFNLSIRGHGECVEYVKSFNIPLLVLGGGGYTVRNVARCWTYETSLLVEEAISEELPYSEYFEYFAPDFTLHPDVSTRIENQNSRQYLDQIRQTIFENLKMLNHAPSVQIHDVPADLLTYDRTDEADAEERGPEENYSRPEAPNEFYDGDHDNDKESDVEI
Chain of HDAC3 (Q9Y618 395-489 partner limits assumed, species assumed): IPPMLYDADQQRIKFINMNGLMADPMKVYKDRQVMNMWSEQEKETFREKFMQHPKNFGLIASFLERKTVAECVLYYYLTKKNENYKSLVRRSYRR
Chain of HDAC1 (Q13547 whole entry, species assumed): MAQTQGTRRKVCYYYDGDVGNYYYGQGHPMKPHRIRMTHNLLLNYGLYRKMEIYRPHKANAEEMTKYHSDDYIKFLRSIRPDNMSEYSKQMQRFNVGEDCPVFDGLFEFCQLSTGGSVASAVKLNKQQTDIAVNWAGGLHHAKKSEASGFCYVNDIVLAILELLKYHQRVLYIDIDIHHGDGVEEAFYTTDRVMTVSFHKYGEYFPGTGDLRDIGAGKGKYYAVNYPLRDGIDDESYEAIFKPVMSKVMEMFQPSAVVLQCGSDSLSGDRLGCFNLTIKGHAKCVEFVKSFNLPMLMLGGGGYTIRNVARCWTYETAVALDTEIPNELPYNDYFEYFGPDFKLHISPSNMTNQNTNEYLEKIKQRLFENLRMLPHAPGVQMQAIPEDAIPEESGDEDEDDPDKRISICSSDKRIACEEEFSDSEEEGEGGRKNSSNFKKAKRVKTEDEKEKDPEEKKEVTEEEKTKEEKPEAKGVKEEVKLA
Chain of HDAC2 (Q92769 whole entry, species assumed): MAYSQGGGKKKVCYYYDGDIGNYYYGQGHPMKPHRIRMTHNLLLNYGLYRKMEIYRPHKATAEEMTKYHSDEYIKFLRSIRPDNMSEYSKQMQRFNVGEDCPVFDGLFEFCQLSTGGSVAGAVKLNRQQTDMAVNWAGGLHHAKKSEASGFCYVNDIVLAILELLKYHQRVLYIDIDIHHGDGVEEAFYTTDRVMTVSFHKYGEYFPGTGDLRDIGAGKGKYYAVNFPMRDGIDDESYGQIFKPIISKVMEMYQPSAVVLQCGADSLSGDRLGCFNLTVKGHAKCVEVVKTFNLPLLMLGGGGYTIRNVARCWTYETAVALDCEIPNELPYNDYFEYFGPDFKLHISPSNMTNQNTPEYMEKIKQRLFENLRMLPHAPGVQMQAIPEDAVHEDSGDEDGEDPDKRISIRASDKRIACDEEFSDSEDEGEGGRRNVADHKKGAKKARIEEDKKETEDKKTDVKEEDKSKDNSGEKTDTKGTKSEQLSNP

Row | IC50 [1, 24] | IC50 [2] | GI50 [3, 25] | GI50 [4, 26] | GI50 [5] | GI50 [7] | GI50 [8] | GI50 [9, 28] | GI50 [10, 29] | GI50 [11] | GI50 [12] | GI50 [13] | GI50 [14] | GI50 [15, 30] | GI50 [16] | GI50 [18] | GI50 [19, 32] | GI50 [20] | GI50 [22, 34] | IC50 [23] | SMILES | further results
1 | 91 nM | 26 nM | 30 nM | 60 nM | 58 nM | 89 nM | 32 nM | 20 nM | 60 nM | 42 nM | 53 nM | 93 nM | 22 nM | 30 nM | 26 nM | 55 nM | 350 nM | 76 nM | 50 nM | 35 nM | C/C=C1\NC(=O)c2cc(SC)cc(n2)CNC(=O)C[C@@H](/C=C/CCSC(C)=O)OC(=O)[C@H](CC)NC1=O [Compound 178] | GI50 [6, 27]: 20 nM; GI50 [17, 31]: 50 nM; GI50 [21, 33]: 90 nM
2 | 19 nM | 43 nM | 190 nM | 10 nM | 88 nM | 21 nM | 79 nM | 30 nM | 80 nM | 59 nM | 55 nM | 56 nM | 33 nM | 70 nM | 16 nM | 31 nM | 950 nM | 32 nM | 170 nM | 32 nM | C/C=C1\NC(=O)c2cccc(n2)CNC(=O)C[C@@H](/C=C/CCSC(=O)CCCCCCC)OC(=O)[C@H](CSCC)NC1=O [Compound 242] | IC50 [1, 35]: < 20 nM; GI50 [3, 36]: 190 nM; GI50 [4, 37]: 14 nM; GI50 [6, 27]: 90 nM; GI50 [6, 38]: 91 nM; GI50 [9, 39]: 330 nM; GI50 [10, 40]: 88 nM; GI50 [15, 41]: 73 nM; GI50 [17, 31]: 30 nM; GI50 [17, 42]: 32 nM; GI50 [19, 43]: 950 nM; GI50 [21, 44]: 12 nM; GI50 [21, 33]: 10 nM; GI50 [22, 45]: 170 nM
3 | 28 nM | 36 nM | 110 nM | 100 nM | 47 nM | 51 nM | 34 nM | 30 nM | 11 nM | 64 nM | 41 nM | 71 nM | 82 nM | 20 nM | 29 nM | 57 nM | 170 nM | 63 nM | 20 nM | 62 nM | C/C=C1\NC(=O)c2cccc(n2)CNC(=O)C[C@@H](/C=C/CCSC(=O)CCCCCCC)OC(=O)[C@H](CC(C)C)NC1=O [Compound 241] | IC50 [1, 35]: < 30 nM; GI50 [3, 36]: 110 nM; GI50 [4, 37]: 100 nM; GI50 [6, 38]: 3 nM; GI50 [9, 39]: 34 nM; GI50 [10, 40]: 11 nM; GI50 [15, 41]: 28 nM; GI50 [17, 42]: 3 nM; GI50 [19, 43]: 170 nM; GI50 [21, 44]: 7 nM; GI50 [22, 45]: 25 nM
